Measured values published in publication PMC10305617, “Sesquiterpene Coumarin Ethers with Selective Cytotoxic Activities from the Roots of Ferula huber-morathii Peşmen (Apiaceae) and Unequivocal Determination of the Absolute Stereochemistry of Samarcandin” (Pharmaceuticals, 2023).

Key:
Format in all cases: cell-based, Human
COLO 205 = test: MTS cell viability (cytotoxic activity) assay, COLO 205; details: for IC50: Homo sapiens, COLO 205, MTS, 72 h, mean ± SD, at least three experiments
Source text: (§1) Human colorectal cancer (COLO 205, CCL-222), breast cancer (MCF-7, HTB-22), chronic myelogenous leukemia (K-562, CCL-243), and umbilical vein/vascular endothelium (HUVEC, CRL-1730) cell lines were obtained from the American Type Culture Collection. The COLO 205, MCF-7, K-562, and HUVEC cell lines were maintained in Roswell Park Memorial Institute ([…], Wisent, Montreal, QC, CANADA), Eagle′s Minimum Essential Medium (EMEM, Wisent, Montreal, QC, CANADA), Iscove’s Modified Dulbecco’s Medium (IMDM, Wisent, Montreal, QC, CANADA), and Dulbecco′s Modified Eagle Medium (DMEM, Wisent, Montreal, QC, CANADA) supplemented with 10% fetal bovine serum (Capricorn, Ebsdorfergrund, Germany), 100 U/mL penicillin, and 100 µg/mL streptomycin (Wisent, Montreal, QC, CANADA), respectively. All of the cell lines were cultured at 37 °C in a humidified atmosphere containing 5% CO2.
(§2) A 3-[4,5-dimethylthiazol-2-yl]-5-[3-carboxymethoxyphenyl]-2-[4-sulfophenyl]-2H-tetrazolium, inner salt (MTS) cell viability assay was performed to evaluate the cytotoxic activities of the sesquiterpene coumarin ethers isolated from Ferula huber-morathii. HUVEC (1 × 10^4), COLO 205 (3 × 10^4), K-562 (3 × 10^4), and MCF7 (5 × 10^4) were plated in 96-well plates. Then, 24 h later, the tested compounds were dissolved in DMSO, and the cells were exposed to the different concentrations (131.58–1.028 µM) of the compounds for 72 h. Cisplatin and doxorubicin were used as a positive control. Next, an MTS/phenazine methosulfate (PMS) (Promega, Madison, WI, USA and Sigma, St. Louis, MO, USA respectively) mixture was added to each well and incubated for 1–4 h at 37 °C. The absorbance was read on a microplate reader (Biotek, Winooski, VT, USA) at 490 nm. The cytotoxic activities of the compounds were expressed as an IC50 value. The % inhibition of cell proliferation was calculated using the formula: % Inhibition = [1-(A490test/A490cont)] × 100, where A490test = absorbance of the test sample and A490cont = absorbance of the control sample [88]. The values of the 50% inhibition of the cell proliferation (IC50) were calculated by locating the x-axis values corresponding to one-half of the absorbance values of the sample.

K-562 = test: MTS cell viability (cytotoxic activity) assay, K-562; details: for IC50: Homo sapiens, K562, K-562, MTS, 72 h, mean ± SD, at least three experiments
Source text: as §1, §2

MCF-7 = test: MTS cell viability (cytotoxic activity) assay, MCF-7; details: for IC50: Homo sapiens, MCF7, MCF-7, MTS, 72 h, mean ± SD, at least three experiments; for cytotoxic effect in words, MCF-7: verbal summary
Source text: as §1, §2

HUVEC = test: MTS cell viability (cytotoxic activity) assay, non-cancerous HUVEC; details: Homo sapiens, 72 h, mean ± SD, at least three experiments
Source text: as §1, §2

[1] = tested on: COLO 205, K-562, MCF-7 and HUVEC cell lines; test: MTS cytotoxicity, overall verbal grading over the cell line panel; details: authors' verbal summary over COLO 205, K-562, MCF-7, HUVEC
Source text: as §1, §2

Work on `CC(=O)O[C@@H]1CC[C@]2(C)[C@H](CC[C@@](C)(O)[C@@H]2COc2ccc3ccc(=O)oc3c2)C1(C)C` [Ferukrin acetate (10), ferukrin acetate] yielded an IC50 (COLO 205) of 106 ± 1.35 µM, an IC50 (K-562) of 88.42 ± 0.85 µM and an IC50 (MCF-7) of over 200 µM. The IC50 (HUVEC) was over 200 µM and the cytotoxicity in words [1] was “little or no cytotoxicity”.

With `CC1(C)[C@H](O)CC[C@]2(C)[C@@H]1CC[C@@](C)(O)[C@@H]2COc1ccc2ccc(=O)oc2c1` [Ferukrin (9), ferukrin] the IC50 (COLO 205) was over 200 µM, the IC50 (K-562) was over 200 µM and the IC50 (MCF-7) was 81.7 ± 1.96 µM. For the same compound, the IC50 (HUVEC) was over 200 µM and the cytotoxicity in words [1] was “little or no cytotoxicity”.

`CC1(C)C(=O)CC[C@]2(C)[C@@H]1CC[C@](C)(O)[C@H]2COc1ccc2ccc(=O)oc2c1` [Samarcandone (13), samarcandone] showed an IC50 (COLO 205) of 125 ± 2.13 µM, an IC50 (K-562) of over 200 µM and an IC50 (MCF-7) of over 200 µM. For the same compound, the IC50 (HUVEC) was 190 ± 5.2 µM and the cytotoxicity in words [1] was “little or no cytotoxicity”.

Work on `CC(=O)O[C@H]1CC[C@]2(C)[C@H](CC[C@@](C)(O)[C@@H]2COc2ccc3ccc(=O)oc3c2)C1(C)C` [Kellerin (12), kellerin] yielded an IC50 (COLO 205) of 51.1 ± 1.57 µM, an IC50 (K-562) of 78.1 ± 3.13 µM and an IC50 (MCF-7) of 18.24 ± 0.12 µM. The “cytotoxic effect in words, MCF-7” value (MCF-7) was “moderate cytotoxic effect” and the IC50 (HUVEC) was 99.4 ± 1.63 µM.

Work on `CC(=O)O[C@H]1CC[C@]2(C)[C@H](CC[C@](C)(O)[C@H]2COc2ccc3ccc(=O)oc3c2)C1(C)C` [Samarcandin acetate (15), samarcandin acetate] yielded an IC50 (COLO 205) of 70.29 ± 0.65 µM, an IC50 (K-562) of 78.7 ± 1.65 µM and an IC50 (MCF-7) of over 200 µM. The IC50 (HUVEC) was over 200 µM and the cytotoxicity in words [1] was “little or no cytotoxicity”.

For `C=C1CC[C@@H]2C(C)(C)[C@H](O)CC[C@@]2(C)[C@H]1COc1ccc2ccc(=O)oc2c1` [Farnesiferol A (6), farnesiferol A], the IC50 (COLO 205) was over 200 µM, the IC50 (K-562) was over 200 µM and the IC50 (MCF-7) was over 200 µM. For the same compound, the IC50 (HUVEC) was 74.4 ± 1.19 µM.

`CC1(C)[C@H]2CC[C@@](C)(O)[C@H](COc3ccc4ccc(=O)oc4c3)[C@]2(C)CC[C@@H]1O` [Deacetylkellerin (11), deacetylkellerin] gave an IC50 (COLO 205) of over 200 µM, an IC50 (K-562) of over 200 µM and an IC50 (MCF-7) of 47.62 ± 0.4 µM. The IC50 (HUVEC) was over 200 µM and the cytotoxicity in words [1] was “little or no cytotoxicity”.

`CC1(O)CCC2C(C)(C)C(O)CCC2(C)C1COc1ccc2ccc(=O)oc2c1` (centres unmarked) [Samarcandin (14), samarcandin] was tested, and the IC50 (COLO 205) was 170 ± 3.62 µM, the IC50 (K-562) was 143 ± 1.67 µM and the IC50 (MCF-7) was 83.27 ± 0.39 µM. The IC50 (HUVEC) was 169 ± 2.68 µM and the cytotoxicity in words [1] was “little or no cytotoxicity”.

Work on `C=C1CCC2C(C)(C)C(OC(C)=O)CCC2(C)C1COc1ccc2ccc(=O)oc2c1` (centres unmarked) [Farnesiferol A acetate (7), farnesiferol A acetate] yielded an IC50 (COLO 205) of 66 ± 1.89 µM, an IC50 (K-562) of 52.7 ± 0.9 µM and an IC50 (MCF-7) of 27.4 ± 0.96 µM. For the same compound, the “cytotoxic effect in words, MCF-7” value (MCF-7) was “moderate cytotoxic activity”, the IC50 (HUVEC) was 64.5 ± 1.56 µM and the cytotoxicity in words [1] was “moderate or strong cytotoxicity”.

In the case of `C=C1CC[C@@H]2C(C)(C)C(=O)CC[C@@]2(C)[C@@H]1COc1ccc2ccc(=O)oc2c1` [Badrakemone (4), badrakemone], the IC50 (COLO 205) is reported as over 200 µM, the IC50 (K-562) is reported as over 200 µM and the IC50 (MCF-7) is reported as over 200 µM. For the same compound, the IC50 (HUVEC) was over 200 µM and the cytotoxicity in words [1] was “little or no cytotoxicity”.

`CN1C[C@H](c2cccc(C#N)c2)Oc2ccccc2C1=O` [Compound 6, reference compound] was tested, and the cytotoxicity in words [1] was “little or no cytotoxicity”.

For `C=C1CC[C@@H]2C(C)(C)[C@@H](O)CC[C@@]2(C)[C@H]1COc1ccc2ccc(=O)oc2c1` [Gummosin (8), gummosin], the IC50 (COLO 205) was over 200 µM, the IC50 (K-562) was 95.5 ± 4.87 µM and the IC50 (MCF-7) was over 200 µM. The IC50 (HUVEC) was 174.8 ± 0.28 µM and the cytotoxicity in words [1] was “little or no cytotoxicity”.

Compound `COc1cccc2c1C(=O)c1c(O)c3c(c(O)c1C2=O)C[C@@](O)(C(=O)CO)C[C@@H]3O[C@H]1C[C@H](N)[C@H](O)[C@H](C)O1` [Doxorubicin, reference compound] has an IC50 (COLO 205) of 0.08 µM, an IC50 (K-562) of 0.33 ± 0.02 µM and an IC50 (MCF-7) of 2.83 ± 0.25 µM. For the same compound, the IC50 (HUVEC) was 0.2 ± 0.02 µM.

`CC1=CC[C@@H]2C(C)(C)[C@@H](O)CC[C@@]2(C)[C@@H]1COc1ccc2ccc(=O)oc2c1` [Conferol (2), conferol] was tested, and the “selectivity index COLO 205” value (COLO 205; HUVEC versus COLO 205) was 5.45, the IC50 (COLO 205) was 11.2 ± 0.68 µM and the “selectivity index K-562” value (K-562; HUVEC versus K-562) was 1.73. For the same compound, the IC50 (K-562) was 35.2 ± 0.89 µM, the “selectivity index MCF-7” value (MCF-7; HUVEC versus MCF-7) was 3.82 and the IC50 (MCF-7) was 16 ± 0.46 µM. For the same compound, the IC50 (HUVEC) was 61.03 ± 0.29 µM and the cytotoxicity in words [1] was “moderate or strong cytotoxicity”.
